A short description of this series: xn = mol fraction of the nth substance listed. To be noted: 298.15 K, 101 kPa.

As for `CCCC[n+]1ccn(C)c1.[Cl-]` + O, the speed of sound (in general, how fast a sound wave travels through the sample) runs as follows: (x2 = 0.2213) 1838.3 m/s; (x2 = 0.308) 1828.2 m/s; (x2 = 0.3852) 1831.3 m/s; (x2 = 0.5017) 1845 m/s; (x2 = 0.5976) 1859.6 m/s; (x2 = 0.6987) 1872.8 m/s. In addition, the speed of sound (x2 = 0.8012) came out at 1881.5 m/s, the speed of sound (x2 = 0.8967) is 1853.7 m/s and the speed of sound (x2 = 0.9504) turned out to be 1754.7 m/s.
For `CCCC[n+]1ccn(C)c1.[Cl-]` + CCO, the speed of sound runs as follows: (x2 = 0.1874) 1744.8 m/s; (x2 = 0.4815) 1598.2 m/s; (x2 = 0.6209) 1515 m/s; (x2 = 0.7217) 1443 m/s; (x2 = 0.8982) 1279.1 m/s; (x2 = 0.9373) 1232.5 m/s.

The record behind these values is a compilation of properties of binary mixtures (doi:10.1007/s10953-006-9073-6).
